ChEMBL document CHEMBL1135247, “Benzimidazoles and isosteric compounds as potent and selective factor Xa inhibitors” (Bioorg Med Chem Lett, 2002)

Biological target: Serine protease 1 (Homo sapiens, UniProt P07477)
Assay: Tested for inhibitory activity against trypsin

Serine protease 1, sequence (P07477 whole entry): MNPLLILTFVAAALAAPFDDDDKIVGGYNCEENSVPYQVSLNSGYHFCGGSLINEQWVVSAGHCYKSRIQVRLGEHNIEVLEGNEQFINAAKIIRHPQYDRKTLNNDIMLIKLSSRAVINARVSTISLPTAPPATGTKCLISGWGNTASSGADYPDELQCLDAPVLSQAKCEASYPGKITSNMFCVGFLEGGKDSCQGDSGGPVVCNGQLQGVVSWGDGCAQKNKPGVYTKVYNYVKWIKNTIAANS

Ki [nM] | SMILES
> 2900 | Nc1ncnc2cc(CN3CCN(S(=O)(=O)c4nc5ccc(Cl)cc5[nH]4)CC3=O)ccc12
> 2900 | Nc1ncnc2cc(CN3CCN(Cc4cc5cc(Cl)ccc5[nH]4)CC3=O)ccc12
> 2900 | Nc1ncnc2cc(CN3CCN(Cc4nc5ccc(Cl)cc5[nH]4)CC3=O)ccc12

Biological target: Tissue-type plasminogen activator (Homo sapiens, UniProt P00750)
Assay: Tested for inhibitory activity against Tissue plasminogen activator

Tissue-type plasminogen activator, sequence (P00750 whole entry): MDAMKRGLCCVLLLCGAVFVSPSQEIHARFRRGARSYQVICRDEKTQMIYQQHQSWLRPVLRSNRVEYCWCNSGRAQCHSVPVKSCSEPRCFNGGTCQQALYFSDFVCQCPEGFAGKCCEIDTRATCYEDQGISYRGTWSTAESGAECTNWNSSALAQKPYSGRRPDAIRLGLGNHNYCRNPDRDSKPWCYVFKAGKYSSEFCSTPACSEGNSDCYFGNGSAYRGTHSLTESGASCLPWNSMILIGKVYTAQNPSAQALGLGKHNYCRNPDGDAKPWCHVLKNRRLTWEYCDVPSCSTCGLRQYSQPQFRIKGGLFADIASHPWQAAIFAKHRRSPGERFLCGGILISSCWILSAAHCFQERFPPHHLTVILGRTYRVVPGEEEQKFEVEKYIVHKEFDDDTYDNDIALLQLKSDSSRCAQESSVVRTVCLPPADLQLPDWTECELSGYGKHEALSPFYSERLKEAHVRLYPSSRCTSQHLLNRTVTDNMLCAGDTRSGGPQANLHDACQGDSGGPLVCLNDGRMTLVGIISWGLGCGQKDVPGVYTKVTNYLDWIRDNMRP

Ki [nM] | SMILES
> 8700 | Nc1ncnc2cc(CN3CCN(S(=O)(=O)c4nc5ccc(Cl)cc5[nH]4)CC3=O)ccc12
> 8700 | Nc1ncnc2cc(CN3CCN(Cc4cc5cc(Cl)ccc5[nH]4)CC3=O)ccc12
> 8700 | Nc1ncnc2cc(CN3CCN(Cc4nc5ccc(Cl)cc5[nH]4)CC3=O)ccc12

Biological target: Plasminogen (Homo sapiens, UniProt P00747)
Assay: Tested for inhibitory activity against plasmin

Plasminogen, sequence (P00747 97-580 limits assumed): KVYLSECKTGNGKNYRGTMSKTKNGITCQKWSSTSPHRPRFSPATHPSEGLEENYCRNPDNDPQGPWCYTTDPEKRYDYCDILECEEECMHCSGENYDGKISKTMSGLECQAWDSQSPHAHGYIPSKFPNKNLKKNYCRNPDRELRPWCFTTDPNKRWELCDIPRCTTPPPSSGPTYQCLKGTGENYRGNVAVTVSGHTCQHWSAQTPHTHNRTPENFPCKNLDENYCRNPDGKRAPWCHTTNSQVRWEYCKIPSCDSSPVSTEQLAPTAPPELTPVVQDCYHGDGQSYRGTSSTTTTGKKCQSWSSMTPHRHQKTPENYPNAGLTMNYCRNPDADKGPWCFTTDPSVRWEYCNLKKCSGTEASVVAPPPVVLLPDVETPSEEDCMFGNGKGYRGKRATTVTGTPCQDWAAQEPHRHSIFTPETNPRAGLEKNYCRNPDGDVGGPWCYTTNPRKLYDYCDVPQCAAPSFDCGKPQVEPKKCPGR
Plasminogen, sequence (P00747 581-810 limits assumed): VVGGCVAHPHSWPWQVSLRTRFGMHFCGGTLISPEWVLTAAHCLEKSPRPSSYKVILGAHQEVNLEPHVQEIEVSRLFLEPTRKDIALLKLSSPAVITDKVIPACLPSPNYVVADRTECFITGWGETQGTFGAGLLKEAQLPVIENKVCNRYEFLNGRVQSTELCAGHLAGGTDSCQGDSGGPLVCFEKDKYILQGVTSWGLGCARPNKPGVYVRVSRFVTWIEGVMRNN

Ki [nM] | SMILES
> 7300 | Nc1ncnc2cc(CN3CCN(S(=O)(=O)c4nc5ccc(Cl)cc5[nH]4)CC3=O)ccc12
> 7300 | Nc1ncnc2cc(CN3CCN(Cc4cc5cc(Cl)ccc5[nH]4)CC3=O)ccc12
> 7300 | Nc1ncnc2cc(CN3CCN(Cc4nc5ccc(Cl)cc5[nH]4)CC3=O)ccc12

Biological target: T1, Coagulation factor X (Homo sapiens, UniProt P00742)
Assay: Tested for inhibitory activity against Coagulation factor Xa

T1 sequence (P00742 41-179 limits assumed): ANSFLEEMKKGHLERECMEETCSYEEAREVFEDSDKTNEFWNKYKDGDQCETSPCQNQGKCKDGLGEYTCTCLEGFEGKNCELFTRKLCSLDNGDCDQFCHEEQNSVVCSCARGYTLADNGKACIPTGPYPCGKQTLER
T1 sequence (P00742 235-488 limits assumed): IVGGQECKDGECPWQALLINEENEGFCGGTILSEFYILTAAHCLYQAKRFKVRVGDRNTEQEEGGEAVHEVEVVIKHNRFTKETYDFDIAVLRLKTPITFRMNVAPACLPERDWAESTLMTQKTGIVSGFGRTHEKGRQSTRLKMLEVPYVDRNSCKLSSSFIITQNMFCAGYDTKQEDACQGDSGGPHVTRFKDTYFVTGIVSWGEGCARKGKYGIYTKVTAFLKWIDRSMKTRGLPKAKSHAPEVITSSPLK

Ki [nM] | SMILES
42 | Nc1ncnc2cc(CN3CCN(Cc4nc5ccc(Cl)cc5[nH]4)CC3=O)ccc12

Biological target: T1, Coagulation factor X
Assay: Tested for inhibitory against Coagulation factor Xa at a concentration of 3.9 uM

inhibition [%] | SMILES
42 | N=C(N)c1cccc(CN2CCN(Cc3nc4cc(Cl)ccc4[nH]3)CC2=O)c1

Biological target: Vitamin K-dependent protein C (Homo sapiens, UniProt P04070)
Assay: Tested for inhibitory activity against Activated protein C

Vitamin K-dependent protein C, sequence (P04070 43-197 limits assumed): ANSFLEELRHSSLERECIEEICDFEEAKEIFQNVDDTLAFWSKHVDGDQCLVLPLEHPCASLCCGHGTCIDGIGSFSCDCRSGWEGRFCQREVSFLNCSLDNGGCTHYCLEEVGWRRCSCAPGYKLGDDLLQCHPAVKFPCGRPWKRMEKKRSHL
Vitamin K-dependent protein C, sequence (P04070 212-461 limits assumed): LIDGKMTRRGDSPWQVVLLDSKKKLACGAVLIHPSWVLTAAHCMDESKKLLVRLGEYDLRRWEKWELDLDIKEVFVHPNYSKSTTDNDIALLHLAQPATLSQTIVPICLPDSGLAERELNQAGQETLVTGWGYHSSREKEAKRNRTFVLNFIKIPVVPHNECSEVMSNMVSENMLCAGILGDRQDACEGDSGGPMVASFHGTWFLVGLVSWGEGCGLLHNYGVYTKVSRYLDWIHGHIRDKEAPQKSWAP

Ki [nM] | SMILES
> 18000 | Nc1ncnc2cc(CN3CCN(S(=O)(=O)c4nc5ccc(Cl)cc5[nH]4)CC3=O)ccc12
> 18000 | Nc1ncnc2cc(CN3CCN(Cc4cc5cc(Cl)ccc5[nH]4)CC3=O)ccc12
> 18000 | Nc1ncnc2cc(CN3CCN(Cc4nc5ccc(Cl)cc5[nH]4)CC3=O)ccc12

Biological target: Prothrombin (Homo sapiens, UniProt P00734)
Assay: Tested for inhibitory activity against thrombin

Ki [nM] | SMILES
> 4000 | Nc1ncnc2cc(CN3CCN(S(=O)(=O)c4nc5ccc(Cl)cc5[nH]4)CC3=O)ccc12
> 4000 | Nc1ncnc2cc(CN3CCN(Cc4cc5cc(Cl)ccc5[nH]4)CC3=O)ccc12
> 4000 | Nc1ncnc2cc(CN3CCN(Cc4nc5ccc(Cl)cc5[nH]4)CC3=O)ccc12

Biological target: T1, Coagulation factor X
Assay: Inhibition of Coagulation factor Xa

Ki [nM] | SMILES
> 1200 | Nc1ncnc2cc(CN3CCN(Cc4nc5ccc(C(F)(F)F)cc5[nH]4)CC3=O)ccc12
> 1200 | Nc1ncnc2cc(CN3CCN(Cc4nc5cc(OC(F)(F)F)ccc5[nH]4)CC3=O)ccc12
3 | Nc1ncnc2cc(CN3CCN(S(=O)(=O)c4nc5ccc(Cl)cc5[nH]4)CC3=O)ccc12
> 1200 | Nc1ncnc2cc(CN3CCN(Cc4nc5cc(Cl)ccc5[nH]4)CC3)ccc12
> 1200 | Nc1ncnc2cc(CN3CCN(Cc4nc5cc(Cl)c(Cl)cc5[nH]4)CC3=O)ccc12
24 | Nc1ncnc2cc(CN3CCN(Cc4cc5cc(Cl)ccc5[nH]4)CC3=O)ccc12
10 | Nc1ncnc2cc(CN3CCN(Cc4nc5ccc(Cl)cc5[nH]4)CC3=O)ccc12
> 1200 | N=C(N)c1cccc(CN2CCN(Cc3nc4ccc(Cl)cc4[nH]3)CC2=O)c1
390 | Nc1ncnc2cc(CN3CCN(Cc4cc5ccc(Cl)cc5[nH]4)CC3=O)ccc12
40 | N=C(N)c1ccc(CN2CCN(Cc3nc4ccc(Cl)cc4[nH]3)CC2=O)cc1
290 | Cn1c(CN2CCN(Cc3ccc4c(N)ncnc4c3)C(=O)C2)nc2ccc(Cl)cc21
120 | Cc1ccc2nc(CN3CCN(Cc4ccc5c(N)ncnc5c4)C(=O)C3)[nH]c2c1
> 1200 | Nc1ncnc2cc(CN3CCN(Cc4nc5ccc(Cl)cc5s4)CC3=O)ccc12
> 1200 | Nc1ncnc2cc(CN3CCN(Cc4nc5ccc(Cl)cc5o4)CC3=O)ccc12
17 | Nc1ncnc2cc(CN3CCN(Cc4nc5ccc(Br)cc5[nH]4)CC3=O)ccc12
1200 | Nc1ncnc2cc(CN3CCN(Cc4nc5ccccc5[nH]4)CC3=O)ccc12
1200 | Nc1ncnc2cc(CN3CCN(Cc4nc5cc(Cl)ccc5o4)CC3=O)ccc12
